“And” between values parts separate entries of the source, which are not always exact repeats. Identical values can stand only once.
Columns and labels:
Acute toxicity in mice = settings: mouse, in vivo, ip, mice, i.p., lethality 24 hours later, Table 6 (range in brackets beside); read-out: LD50
Experimental: (§1) Compounds according to the present invention were checked for their influence on gross behaviour. The experiments described herein (Examples 11, 12, 13, 14, and 15) were carried out using outbred male mice weighing approximately 18-24 g. Each substance was administered intraperitoneally 45 min. before the experiment. Locomotor activity was estimated individually for each animal for 3 min. using an actometer `Era-1` (Russia).
The compounds of the present invention were checked for acute toxicity in outbred male mice (18-22 g.). They were administered intraperitoneally and the lethality was estimated 24 hours later (Table 6). In the dose range of 500-1000 mg/kg i.p. Compound 1 caused death in 50% of the animals. Compound 1 is almost 5 times less toxic than other compounds.

[1] = test system: duration of immobility in mice; test: Behavioural despair test (forced swimming); type: in vivo, outbred male mice; settings: for Influence on duration of immobility, in words: forced swimming; for The duration of immobility: i.p.
Experimental: as §1
The influence of compounds on behavioral despair was studied according to the model described by Porsolt et al., Arch. int. pharmacodyn.et ther., 228, 327-[…] (1977), which is incorporated herein by reference. Mice, when forced to swim in a cylinder of water without the possibility of escape, rapidly adopt a characteristic immobile posture. […] The only movements they make are those necessary to keep their heads above water.

[2] = test system: locomotor activity in mice; test: Locomotor activity in mice (actometer); type: in vivo, outbred male mice; settings: i.p.
Experimental: as §1

[3] = test system: rat behavior in Vogel conflict test; test: Vogel conflict test (anxiolytic activity, punished responses in water-deprived rats); type: in vivo, outbred male albino rats; settings: rat
Text: Compounds according to the present invention were checked for their anxiolytic activity. Behaviour suppressed by punishment is a very reliable indicator of the anxiolytic activity of drugs. A variant of the conflict situation test was used to reveal anxiety in water-deprived rats whose licking was suppressed by shock (see Vogel et al., Phychopharmacologia, 21, 1-7 (1971); J. E. Barrett in Animal Models in Psychopharmacology, Advances in Pharmacological Sciences, 1991; and Birkhauser Verlag, Basel, p. 37.52, Molodavkin et al., Exper. Clin. Pharmacol., 56, (1993), which are incorporated herein by reference).
The experiments were carried out using outbred male albino rats (180-220 g). This experiment involved previous training of water-deprived rats to drink water from a trough. Next day electrical stimulation was given delivering 0.5 mA electric shocks through the trough and metal grid floor of the experimental chamber. A conflict situation was created by clashing motivations (survival and self defense). The degree of anxiolytic activity was estimated by the measurement of the amount of punished licks for 10 min. Each compound was administered intraperitoneally 45 min. before the conflict test.

[4] = test system: aggressive behavior in mice; test: Antiaggressive activity (threshold of aggressive behavior, electrified floor); type: in vivo, outbred male mice
Experimental: as §1
The effect of Compound 1 on the threshold of the aggressive behavior was determined in the experiment on outbred mice (R. Tedesci et al., J. Pharmacol. Exp. Ther., 125, 28-34, (1959), which is incorporated herein by reference). The paired mice were placed on the electrified floor. The strength of the current, which provoked the fighting, was recorded.

motor behavior in mice [5] = test: Rotating rod test (coordination of movements and myorelaxation); settings: mice
Experimental: (§2) The influence of Compound 1 on the motor behavior was studied according to a "rotating rod" test and a "horizontal wire" test in outbred male mice (18-22 g). A rotating rod (2 cm diameter and 5 rpm speed) was used. Acquisition was defined as the ability to remain on the rotating rod for 2 min. Each animal had two trials. According to the "horizontal wire" test a mouse was hung on the wire (0.3 cm. diameter, wire was fixed horizontally 40 cm above the floor) by the forepaws. The ability to pull the hind legs up to the wire for 2 min. was a criterion of test performance.

[6] = as above; settings: mouse, in vivo
Experimental: as §2

memory formation in rats = test: Passive avoidance test, step-through (memory formation, retention); type: in vivo, outbred male albino rats; settings: rat, 5.0 mg/kg i.p., retention 24 hours later, 3 min
Experimental: The influence of Compound 1 on memory formation was studied in a passive avoidance test, step-through paradigm (equipment of Laffaette Co., USA). The experiments were carried out on outbred male albino rats ([…]). Compound 1 and other drugs were administered intraperitoneally 45 min. before the passive avoidance training. The retention was tested 24 hours later learning (painful electroshock in the dark compartment) by the measurement of the time spent in the dark compartment for 3 min.

motor behavior in mice [7] = test: Horizontal wire test (coordination of movements and myorelaxation); settings: mice
Experimental: as §2

[8] = as above; settings: mouse, in vivo
Experimental: as §2

[9] = 2.0 mg/kg i.p., 45 min before test, Table 1

In the case of O=C(O)C(=O)O.O=C(c1ccccc1)N1CCn2c(CN3CCOCC3)ccc2C1 [Compound 7, 2-Benzoyl-6-(Morpholinomethyl)-1,2,3,4-Tetrahydropyrrolo-[1,2-a]-Pyrazine Hydrooxalate], the LD50 at 24 h (Acute toxicity in mice) is reported as 115 mg/kg, the “Influence on duration of immobility, in words” value (from here on “Influence on duration”) [1] is reported as “did not show any activity” and the “The duration of immobility” value ([1]; 10.0 mg/kg) is reported as 169.3 ± 11.8 s. The “The duration of immobility” value ([1]; 20.0 mg/kg) was 147.8 ± 7.1 s, the “Influence on locomotor activity, in words” value [2] was “decrease locomotor activity” and the “The number of movements for 3 min., horizontal activity” value (shortened to “The number … horizontal activity”) ([2]; 10.0 mg/kg) was 475.1 ± 11.2. For the same compound, the “The number of movements for 3 min., vertical activity” value (“The number … vertical activity” below) ([2]; 10.0 mg/kg) was 13.7 ± 2.5, the “The number … horizontal activity” value ([2]; 20.0 mg/kg) was 474.0 ± 14.7 and the “The number … vertical activity” value ([2]; 20.0 mg/kg) was 12.4 ± 3.8. The “The number of punished responses” value [3, 9] was 25.00 ± 5.99.

In the case of CC(=O)N1CCn2c(CN3CCOCC3)ccc2C1 [Compound 4, 2-Acetyl-6-(Morpholinomethyl)-1,2,3,4-Tetrahydropyrrolo-[1,2-a]-Pyrazine], the LD50 at 24 h (Acute toxicity in mice) is reported as 105 mg/kg, the “Influence on duration” value [1] is reported as “did not show any activity” and the “The duration of immobility” value ([1]; 10.0 mg/kg) is reported as 197.3 ± 5.9 s. For the same compound, the “The duration of immobility” value ([1]; 20.0 mg/kg) was 202.7 ± 6.7 s, the “The number … horizontal activity” value ([2]; 10.0 mg/kg) was 479.6 ± 22.8 and the “The number … vertical activity” value ([2]; 10.0 mg/kg) was 17.6 ± 6.9. For the same compound, the “The number … horizontal activity” value ([2]; 20.0 mg/kg) was 564.5 ± 22.5, the “The number … vertical activity” value ([2]; 20.0 mg/kg) was 24.7 ± 5.6 and the “The number of punished responses” value [3, 9] was 9.25 ± 1.75.

With CN1CCN=C(c2ccccc2)c2cc(Cl)ccc21 [Medazepam, reference compound] the Aggression threshold ([4]; 5.0 mg/kg i.p.) was 32.2 ± 5.25 V, the Aggression threshold ([4]; 10.0 mg/kg i.p.) was 43.1 ± 4.2 V and the “Disturbances according to rotating rod test, effect in %” value (motor behavior in mice [5]; dose 2.5) was 40%. The “Disturbances according to rotating rod test, effect in %” value (motor behavior in mice [5]; dose 5.0) was 50%, the “Disturbances according to rotating rod test, effect in %” value (motor behavior in mice [5]; dose 10.0) was 96% and the TD50 [6] was 5.2 mg/kg. For the same compound, the “The time spent in dark compartment” value (memory formation in rats) was 142.6 ± 19.58 s, the “The time spent in light compartment” value (memory formation in rats) was 37.4 ± 19.5 s and the “Disturbances according to horizontal wire test, effect in %” value (motor behavior in mice [7]; dose 2.5) was 33%. For the same compound, the “Disturbances according to horizontal wire test, effect in %” value (motor behavior in mice [7]; dose 5.0) was 50%, the “Disturbances according to horizontal wire test, effect in %” value (motor behavior in mice [7]; dose 10.0) was 75% and the TD50 [8] was 7.5 mg/kg.

In the case of CC(=O)N1CCn2c(CN(C)C)ccc2C1 [Compound 2, hydrooxalate of 2-acetyl-6-(dimethylaminomethyl)-1,2,3,4-tetrahydropyrrolo-[1,2-a]-pyrazine], the LD50 at 24 h (Acute toxicity in mice) is reported as 340 mg/kg, the “Influence on duration” value [1] is reported as “increased the duration of immobility” and the “The duration of immobility” value ([1]; 10.0 mg/kg) is reported as 203.4 ± 14.1 s. For the same compound, the “The duration of immobility” value ([1]; 20.0 mg/kg) was 234.9 ± 12.6 s, the “Influence on locomotor activity, in words” value [2] was “decrease locomotor activity” and the “The number … horizontal activity” value ([2]; 10.0 mg/kg) was 524.4 ± 36.9. The “The number … vertical activity” value ([2]; 10.0 mg/kg) was 10.0 ± 2.1, the “The number … horizontal activity” value ([2]; 20.0 mg/kg) was 489.1 ± 9.7 and the “The number … vertical activity” value ([2]; 20.0 mg/kg) was 22.4 ± 3.0. For the same compound, the “The number of punished responses” value [3, 9] was 63.00 ± 35.38.

For O=C(O)C(=O)O.O=C(c1ccccc1)N1CCn2c(CN3CCCCC3)ccc2C1 [Compound 6, 2-Benzoyl-6-(Piperidinomethyl)-1,2,3,4-Tetrahydropyrrolo-[1,2-a]-Pyrazine Hydrooxalate], the LD50 at 24 h (Acute toxicity in mice) was 389 mg/kg, the “Influence on duration” value [1] was “reduced the duration of immobility” and the “The duration of immobility” value ([1]; 1.0 mg/kg) was 184.3 ± 11.7 s. For the same compound, the “The duration of immobility” value ([1]; 10.0 mg/kg) was 201.7 ± 13.1 s, the “The number … horizontal activity” value ([2]; 10.0 mg/kg) was 693.0 ± 25.3 and the “The number … vertical activity” value ([2]; 10.0 mg/kg) was 16.5 ± 6.2. For the same compound, the “The number … horizontal activity” value ([2]; 20.0 mg/kg) was 644.0 ± 30.4, the “The number … vertical activity” value ([2]; 20.0 mg/kg) was 19.9 ± 3.4 and the “The number of punished responses” value [3, 9] was 30.75 ± 13.17.

For CN(C)Cc1ccc2n1CCN(C(=O)c1ccccc1)C2 [Compound 5, 2-Benzoyl-6-(Dimethylaminomethyl)-1,2,3,4-Tetrahydropyrrolo-[1,2-]-Pyrazine], the LD50 at 24 h (Acute toxicity in mice) was 77 mg/kg, the “Influence on duration” value [1] was “reduced the duration of immobility” and the “The duration of immobility” value ([1]; 10.0 mg/kg) was 189.4 ± 10.3 s and 218.3 ± 12.1 s. The “The duration of immobility” value ([1]; 20.0 mg/kg) was 216.4 ± 14.2 s, the “The number … horizontal activity” value ([2]; 10.0 mg/kg) was 676.1 ± 34.5 and the “The number … vertical activity” value ([2]; 10.0 mg/kg) was 36.1 ± 5.8. The “The number … horizontal activity” value ([2]; 20.0 mg/kg) was 659.7 ± 32.7, the “The number … vertical activity” value ([2]; 20.0 mg/kg) was 36.6 ± 8.6 and the “The number of punished responses” value [3, 9] was 85.25 ± 32.04.

With CC(=O)N1CCn2c(CN3CCCCC3)ccc2C1 [Compound 3, 2-Acetyl-6-(Piperidinomethyl)-1,2,3,4-Tetrahydropyrrolo-[1,2-]-Pyrazine] the LD50 at 24 h (Acute toxicity in mice) was 414 mg/kg, the “Influence on duration” value [1] was “increased the duration of immobility” and the “The duration of immobility” value ([1]; 10.0 mg/kg) was 209.3 ± 6.5 s. For the same compound, the “The duration of immobility” value ([1]; 20.0 mg/kg) was 254.6 ± 10.9 s, the “Influence on locomotor activity, in words” value [2] was “decrease locomotor activity” and the “The number … horizontal activity” value ([2]; 10.0 mg/kg) was 532.5 ± 42.1. For the same compound, the “The number … vertical activity” value ([2]; 10.0 mg/kg) was 8.1 ± 1.9, the “The number … horizontal activity” value ([2]; 20.0 mg/kg) was 442.7 ± 30.3 and the “The number … vertical activity” value ([2]; 20.0 mg/kg) was 9.2 ± 4.4. The “The number of punished responses” value [3, 9] was 22.00 ± 4.86.

For CN1C(=O)CN=C(c2ccccc2)c2cc(Cl)ccc21 [Diazepam, reference compound], the Aggression threshold ([4]; 1.0 mg/kg i.p.) was 45.4 ± 9.5 V, the Aggression threshold ([4]; 5.0 mg/kg i.p.) was 92.4 ± 15.6 V and the “The number of punished responses” value ([3]; i.p., dose 1.0 mg/kg, Table 2) was 22.25 ± 10.89. The “The number of punished responses” value ([3]; i.p., dose 2.0 mg/kg, Table 2) was 47.25 ± 22.49, the “The time spent in dark compartment” value (memory formation in rats) was 127.7 ± 21.1 s and the “The time spent in light compartment” value (memory formation in rats) was 52.3 ± 11.3 s. For the same compound, the “Disturbances according to horizontal wire test, effect in %” value (motor behavior in mice [7]; dose 1.0) was 20%, the “Disturbances according to horizontal wire test, effect in %” value (motor behavior in mice [7]; dose 2.0) was 40% and the “Disturbances according to horizontal wire test, effect in %” value (motor behavior in mice [7]; dose 5.0) was 80%.
